Data taken from paper PMC11444284, “Chloroplastic ascorbate modifies plant metabolism and may act as a metabolite signal regardless of oxidative stress” (Plant Physiology, 2024).

Assays:
[1] = molecular target: T1, SBPase (Arabidopsis thaliana, UniProt P46283); test: malachite green phosphate release assay; assay type: biochemical; settings: read-out: % inhibition at 10 mM
T1 construct: gene At3g55800
T1 sequence (P46283 75-393): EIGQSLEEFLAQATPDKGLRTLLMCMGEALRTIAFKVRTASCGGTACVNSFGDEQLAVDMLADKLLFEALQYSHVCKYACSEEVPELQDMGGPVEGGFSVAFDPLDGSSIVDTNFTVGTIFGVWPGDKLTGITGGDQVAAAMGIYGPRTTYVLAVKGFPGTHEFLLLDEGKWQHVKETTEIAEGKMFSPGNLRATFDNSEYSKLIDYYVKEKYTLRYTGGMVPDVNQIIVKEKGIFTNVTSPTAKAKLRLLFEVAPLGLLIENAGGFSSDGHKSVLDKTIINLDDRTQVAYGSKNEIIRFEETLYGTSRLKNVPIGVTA

[2] = molecular target: T1, SBPase; test: malachite green phosphate release assay; assay type: biochemical; settings: 500 µM; alternative substrate; 15 mM MgCl2, 10 mM DTT; thioredoxin F1-activated; room temperature activation

| inhibition at 10000 µM [1] [%] | SMILES | malachite green phosphate release assay [2] |
| --- | --- | --- |
| ~57 | O=C1O[C@H]([C@@H](O)CO)C(O)=C1O [Ascorbate] |  |
|  | O=P(O)(O)OC[C@H]1OC(O)(COP(=O)(O)O)[C@@H](O)[C@@H]1O (some centres unmarked) [fructose-1-6-bisphosphate] | conversion rate of the alternative SBPase substrate fructose-1-6-bisphosphate to fructose-6-phosphate |
